*1 amine or outer side, *2 acyl side, *3 side chain or, on linkers, in order; H or OH if unused. Where a SMILES comes first, the peptide text is derived from it. Side-chain parts run from the residue outwards. [ ]: non-standard residue; d: D form. The star is where a group is joined. X3 = CC(C)CCC[C@@H](C)[C@H]1CC[C@H]2[C@@H]3CC=C4C[C@@H](OC(=O)CCOCCOCCOCCOCCNC(=O)C*)CC[C@]4(C)[C@H]3CC[C@]12C; γGlu = O=C(O)[C@H](CCC(=O)[*:2])N[*:1]; Palmitoyl = CCCCCCCCCCCCCCCC(=O)*; Ac4c = NC1(C(=O)O)CCC1
How the values were obtained:
[1] = molecular target: hGCGR (Homo sapiens, UniProt P47871); test: fluorescence cell based cAMP assay, CHO cells stably expressing GCGR
Protocol: We initially screened peptides in fluorescence cell based assays that measure production of cyclic-AMP (cAMP), using CHO cell lines stably expressing either recombinant human GLP-1R or human GCGR. Determination of Mouse and human GLP-1R and GCGR Agonist Activity was essentially as follows. CHO cells stably expressing mouse or human GLP-1R or GCGR were grown in Iscove's Modified Dulbecco's Medium (IMDM), 10% FBS, 1 mM L-glutamine, penicillin-streptomycin (100 μ/mL) and 750 μg G418/mL for three-four days before harvesting using Enzymefree Dissociation Media (EFDM, Specialty Media). […] The assay was terminated with the addition of the LANCE kit Detection buffer as per the manufacturer's instructions. The plates were held an additional hour at room temperature, then increasing cAMP levels were detected by a decrease in TR-FRET signal as measured in an EnVision counter (PerkinElmer) in comparison to a standard curve of cAMP as per the manufacturer's instructions. Data were analyzed using the linear and nonlinear regression analysis software, GraphPad Prism.
The in vitro potencies shown in Table 10 or Table 11 were determined from the results of assays that were similar to either the cell-based cAMP assays described herein above (Table 10) or the cell-based cAMP assays described in International Published Application No. WO2008101017, which is incorporated herein in its entirety, in particular the cell-based cAMP assays described therein (Table 11).

[2] = pI of the peptide analogs; settings: Table 10
[3] = tested on: human mast cell line LAD2; test: mast cell degranulation counterscreen, beta-hexosaminidase release; format: cell-based; settings: LAD2 cells, 30 minutes; read-out: Degranulation potency EC50
Protocol: LAD2 cells (50,000 cells/well, 96-well plate) were incubated with compounds for 30 minutes. The degranulation of LAD2 cells was determined by quantification of the β-hexosaminidase released into the supernatants and in cell lysates after hydrolysis of 4-methylumbelliferyl-N-acetyl-β-D-glucosaminide. Results are expressed as percentage of β-hexosaminidase release, calculated as percent of total content.

Sequence of hGCGR (P47871 26-477): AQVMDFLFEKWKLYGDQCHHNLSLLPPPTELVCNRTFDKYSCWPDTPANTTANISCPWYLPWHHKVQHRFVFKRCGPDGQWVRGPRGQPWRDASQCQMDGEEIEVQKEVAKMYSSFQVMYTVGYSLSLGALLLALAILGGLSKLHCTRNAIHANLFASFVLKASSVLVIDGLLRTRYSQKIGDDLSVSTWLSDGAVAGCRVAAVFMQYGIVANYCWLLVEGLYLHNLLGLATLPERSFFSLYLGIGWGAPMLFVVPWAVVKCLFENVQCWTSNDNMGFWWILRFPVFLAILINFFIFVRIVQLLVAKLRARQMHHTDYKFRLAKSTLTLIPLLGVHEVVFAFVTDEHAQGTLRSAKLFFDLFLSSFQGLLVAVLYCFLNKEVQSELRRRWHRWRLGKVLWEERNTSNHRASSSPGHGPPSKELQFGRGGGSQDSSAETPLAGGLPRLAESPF

Row | Compound | pI [2] | EC50 [3] | other results
1 | CCCCCCCCCCCCCCCC(=O)N[C@@H](CCC(=O)N[C@@H](CCC(=O)NCCCC[C@H](NC(=O)[C@H](CC(=O)O)NC(=O)[C@H](CO)NC(=O)[C@@H](NC(=O)[C@H](Cc1ccccc1)NC(=O)[C@@H](NC(=O)CNC(=O)[C@H](CCC(N)=O)NC(=O)C1(NC(=O)[C@@H](N)Cc2c[nH]cn2)CCC1)[C@@H](C)O)[C@@H](C)O)C(=O)N[C@@H](CO)C(=O)N[C@@H](CCCCN)C(=O)N[C@@H](Cc1ccc(O)cc1)C(=O)N[C@@H](CC(C)C)C(=O)N[C@@H](CC(=O)O)C(=O)N[C@@H](CCC(=O)O)C(=O)N[C@@H](CCCNC(=N)N)C(=O)N[C@@H](CCCNC(=N)N)C(=O)N[C@@H](C)C(=O)N[C@@H](CCC(N)=O)C(=O)N[C@@H](CC(=O)O)C(=O)N[C@@H](Cc1ccccc1)C(=O)N[C@H](C(=O)N[C@@H](CCC(N)=O)C(=O)N[C@@H](Cc1c[nH]c2ccccc12)C(=O)N[C@@H](CC(C)C)C(=O)N[C@@H](CCSC)C(=O)N[C@@H](CC(N)=O)C(=O)N[C@H](C(=O)N[C@@H](CCCCN)C(N)=O)[C@@H](C)O)C(C)C)C(=O)O)C(=O)O [OXM417] (H-H[Ac4c]QGTFTSDK([γGlu-γGlu-Palmitoyl])SKYLDERRAQDFVQWLMNTK-NH2) | 5.5 |  | EC50 ([1]; hGCGR + 20% plasma EC50, Table 10, 20% plasma): 0.4 nM
2 | CSCC[C@H](NC(=O)[C@H](CC(C)C)NC(=O)[C@H](Cc1c[nH]c2ccccc12)NC(=O)[C@H](CCC(N)=O)NC(=O)[C@@H](NC(=O)[C@H](Cc1ccccc1)NC(=O)[C@H](CC(=O)O)NC(=O)[C@H](CCC(N)=O)NC(=O)[C@H](C)NC(=O)[C@H](C)NC(=O)[C@H](CCC(=O)O)NC(=O)[C@H](CO)NC(=O)[C@H](CC(=O)O)NC(=O)[C@H](CC(C)C)NC(=O)[C@H](Cc1ccc(O)cc1)NC(=O)[C@H](CCCCN)NC(=O)[C@H](CO)NC(=O)[C@H](Cc1ccc(O)cc1)NC(=O)[C@H](CC(=O)O)NC(=O)[C@H](CO)NC(=O)[C@@H](NC(=O)[C@H](Cc1ccccc1)NC(=O)[C@@H](NC(=O)CNC(=O)[C@H](CCC(N)=O)NC(=O)[C@@H](CO)NC(=O)[C@@H](N)Cc1c[nH]cn1)[C@@H](C)O)[C@@H](C)O)C(C)C)C(=O)N[C@@H](CC(N)=O)C(=O)N[C@H](C(=O)N[C@@H](CCCCN)C(=O)N[C@@H](CSCC(=O)NCCOCCOCCOCCOCCC(=O)O[C@H]1CC[C@@]2(C)C(=CC[C@H]3[C@@H]4CC[C@H]([C@H](C)CCCC(C)C)[C@@]4(C)CC[C@@H]32)C1)C(N)=O)[C@@H](C)O [OXM303] (H-H[dS]QGTFTSDYSKYLDSEAAQDFVQWLMNTKC(X3)-NH2; N-terminus assumed) |  | 100 nM | 
3 | CCCCCCCCCCCCCCCC(=O)N[C@@H](CCC(=O)N[C@@H](CCC(=O)NCCCC[C@H](NC(=O)[C@H](C)NC(=O)[C@H](CCCNC(=N)N)NC(=O)[C@H](CCCNC(=N)N)NC(=O)[C@H](CCC(=O)O)NC(=O)[C@H](CC(=O)O)NC(=O)[C@H](CC(C)C)NC(=O)[C@H](Cc1ccc(O)cc1)NC(=O)[C@H](CCCCN)NC(=O)[C@H](CO)NC(=O)[C@H](Cc1ccc(O)cc1)NC(=O)[C@H](CC(=O)O)NC(=O)[C@H](CO)NC(=O)[C@@H](NC(=O)[C@H](Cc1ccccc1)NC(=O)[C@@H](NC(=O)CNC(=O)[C@H](CCC(N)=O)NC(=O)[C@@H](CO)NC(=O)[C@@H](N)Cc1c[nH]cn1)[C@@H](C)O)[C@@H](C)O)C(=O)N[C@@H](CC(=O)O)C(=O)N[C@@H](Cc1ccccc1)C(=O)N[C@H](C(=O)N[C@@H](CCC(N)=O)C(=O)N[C@@H](Cc1c[nH]c2ccccc12)C(=O)N[C@@H](CC(C)C)C(=O)N[C@@H](CCSC)C(=O)N[C@@H](CC(N)=O)C(=O)N[C@H](C(=O)N[C@@H](CCCCN)C(N)=O)[C@@H](C)O)C(C)C)C(=O)O)C(=O)O [OXM410] (H-H[dS]QGTFTSDYSKYLDERRAK([γGlu-γGlu-Palmitoyl])DFVQWLMNTK-NH2; N-terminus assumed) |  | > 10000 nM | 
4 | CCCCCCCCCCCCCCCC(=O)N[C@@H](CCC(=O)N[C@@H](CCC(=O)NCCCC[C@H](NC(=O)[C@H](CC(=O)O)NC(=O)[C@H](CO)NC(=O)[C@@H](NC(=O)[C@H](Cc1ccccc1)NC(=O)[C@@H](NC(=O)CNC(=O)[C@H](CCC(N)=O)NC(=O)[C@@H](CO)NC(=O)[C@@H](N)Cc1c[nH]cn1)[C@@H](C)O)[C@@H](C)O)C(=O)N[C@@H](CO)C(=O)N[C@@H](CCCCN)C(=O)N[C@@H](Cc1ccc(O)cc1)C(=O)N[C@@H](CC(C)C)C(=O)N[C@@H](CC(=O)O)C(=O)N[C@@H](CCC(=O)O)C(=O)N[C@@H](CCCNC(=N)N)C(=O)N[C@@H](CCCNC(=N)N)C(=O)N[C@@H](C)C(=O)N[C@@H](CCC(N)=O)C(=O)N[C@@H](CC(=O)O)C(=O)N[C@@H](Cc1ccccc1)C(=O)N[C@H](C(=O)N[C@@H](CCC(N)=O)C(=O)N[C@@H](Cc1c[nH]c2ccccc12)C(=O)N[C@@H](CC(C)C)C(=O)N[C@@H](CCSC)C(=O)N[C@@H](CC(N)=O)C(=O)N[C@H](C(=O)N[C@@H](CCCCN)C(N)=O)[C@@H](C)O)C(C)C)C(=O)O)C(=O)O [OXM411] (H-H[dS]QGTFTSDK([γGlu-γGlu-Palmitoyl])SKYLDERRAQDFVQWLMNTK-NH2; N-terminus assumed) | 5.4 | > 10000 nM | 
5 | CCCCCCCCCCCCCCCC(=O)N[C@@H](CCC(=O)N[C@@H](CCC(=O)NCCCC[C@H](NC(=O)[C@H](C)NC(=O)[C@H](CCCNC(=N)N)NC(=O)[C@H](CCCNC(=N)N)NC(=O)[C@H](CO)NC(=O)[C@H](CC(=O)O)NC(=O)[C@H](CC(C)C)NC(=O)[C@H](Cc1ccc(O)cc1)NC(=O)[C@H](CCCCN)NC(=O)[C@H](CO)NC(=O)[C@H](Cc1ccc(O)cc1)NC(=O)[C@H](CC(=O)O)NC(=O)[C@H](CO)NC(=O)[C@@H](NC(=O)[C@H](Cc1ccccc1)NC(=O)[C@@H](NC(=O)CNC(=O)[C@H](CCC(N)=O)NC(=O)[C@@H](CO)NC(=O)[C@@H](N)Cc1c[nH]cn1)[C@@H](C)O)[C@@H](C)O)C(=O)N[C@@H](CC(=O)O)C(=O)N[C@@H](Cc1ccccc1)C(=O)N[C@H](C(=O)N[C@@H](CCC(N)=O)C(=O)N[C@@H](Cc1c[nH]c2ccccc12)C(=O)N[C@@H](CC(C)C)C(=O)N[C@@H](CCSC)C(=O)N[C@@H](CC(N)=O)C(=O)N[C@H](C(=O)N[C@@H](CCCCN)C(=O)N[C@@H](CCC(N)=O)C(=O)O)[C@@H](C)O)C(C)C)C(=O)O)C(=O)O [OXM408] |  | > 10000 nM | 
6 | CC[C@H](C)[C@H](NC(=O)[C@H](CC(N)=O)NC(=O)[C@H](CC(N)=O)NC(=O)[C@H](CCCNC(=N)N)NC(=O)[C@H](CC(N)=O)NC(=O)[C@H](CCCNC(=N)N)NC(=O)[C@H](CCCCN)NC(=O)[C@@H](NC(=O)[C@H](CC(N)=O)NC(=O)[C@H](CCOC)NC(=O)[C@H](CC(C)C)NC(=O)[C@H](Cc1c[nH]c2ccccc12)NC(=O)[C@H](CCC(N)=O)NC(=O)[C@@H](NC(=O)[C@H](Cc1ccccc1)NC(=O)[C@H](CC(=O)O)NC(=O)[C@H](CCC(N)=O)NC(=O)[C@H](C)NC(=O)[C@H](CCCNC(=N)N)NC(=O)[C@H](CCCNC(=N)N)NC(=O)[C@H](CO)NC(=O)[C@H](CC(=O)O)NC(=O)[C@H](CC(C)C)NC(=O)[C@H](Cc1ccc(O)cc1)NC(=O)[C@H](CCCCN)NC(=O)[C@H](CO)NC(=O)[C@H](Cc1ccc(O)cc1)NC(=O)[C@H](CC(=O)O)NC(=O)[C@H](CO)NC(=O)[C@@H](NC(=O)[C@H](Cc1ccccc1)NC(=O)[C@@H](NC(=O)CNC(=O)[C@H](CCC(N)=O)NC(=O)C(C)(C)NC(=O)[C@@H](N)Cc1c[nH]cn1)[C@@H](C)O)[C@@H](C)O)C(C)C)[C@@H](C)O)C(=O)N[C@@H](C)C(=O)N[C@@H](CSCC(=O)OC1CC[C@@]2(C)C(=CC[C@H]3[C@@H]4CC[C@H]([C@H](C)CCCC(C)C)[C@@]4(C)CC[C@@H]32)C1)C(N)=O (some centres unmarked) [OXM213] |  |  | GCGR + 10% plasma (fold shift) ([1]; EC50 with 10% plasma vs without): (44x) fold

From US9593155B2, “Oxyntomodulin analogs” (priority 2009, dated 2017)
